# Assay results published in patent US6355799B1, “Substituted benzene compounds, process for their preparation, and herbicidal and defoliant compositions containing them” (ISK Americas Incorporated, priority 1997, dated 2002).
# Experiments:
# Format in all cases: in vivo
# [1] = system: redroot pigweed (Amaranthus retroflexus, AMARE); assay: Pre-emerge test, greenhouse herbicide activity screening; conditions: pre-emerge, rated 14 days after application, 0 = no damage, 100 = complete death
# Outline: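 Rating: 0–100 visual injury, 14 DAA. Application: acetone, 187 l/ha, 15–1000 g ai/ha, flat-fan track sprayer with nozzle 40–45 cm above soil or canopy. Post-emerge runs used 0.25% v/v surfactant on 2–3 leaf plants.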
# [2] = system: barnyardgrass (Echinochloa crus-galli, ECHCG); assay: as above; conditions: pre-emerge, rated 14 days after application, 0 = no damage, 100 = complete death
# Outline: (§1)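 Plants grown in 10 cm pots of sandy loam mix received acetone-dissolved compounds through a moving flat-fan nozzle. Doses ranged from 15 to 1000 g ai/ha. Pre-emerge pots were seeded one day earlier, post-emerge pots 8–21 days earlier. Fourteen days on, each pot was graded 0–100 for damage.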
# [3] = system: green foxtail (Setaria viridis, SETVI); assay: as above; conditions: pre-emerge, rated 14 days after application, 0 = no damage, 100 = complete death
# Outline: as §1
# [4] = system: ivyleaf morningglory (Ipomoea hederacea, IPOHE); assay: as above; conditions: pre-emerge, rated 14 days after application, 0 = no damage, 100 = complete death
# Outline: as §1
# [5] = system: johnsongrass (Sorghum halepense, SORHA); assay: as above; conditions: pre-emerge, rated 14 days after application, 0 = no damage, 100 = complete death
# Outline: as §1
# [6] = system: lambsquarters (Chenopodium album, CHEAL); assay: as above; conditions: pre-emerge, rated 14 days after application, 0 = no damage, 100 = complete death
# Outline: as §1
# [7] = system: large crabgrass (Digitaria sanguinalis, DIGSA); assay: as above; conditions: pre-emerge, rated 14 days after application, 0 = no damage, 100 = complete death
# Outline: as §1
# [8] = system: sicklepod (Cassia obtusifolia, CASOB); assay: as above; conditions: pre-emerge, rated 14 days after application, 0 = no damage, 100 = complete death
# Outline: as §1
# [9] = system: velvetleaf (Abutilon theophrasti, ABUTH); assay: as above; conditions: pre-emerge, rated 14 days after application, 0 = no damage, 100 = complete death
# Outline: as §1
# [10] = system: field corn (Zea mays L., var. Dekalb 535, CORN); assay: Pre-emerge test, crop safety; conditions: pre-emerge, rated 14 days after application, 0 = no damage, 100 = complete death
# Outline: (§2)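 Herbicidal damage is scored 0 (none) to 100 (complete plant death) two weeks after a simulated field spray. Rates span 15–1000 g ai/ha, delivered in acetone at 187 l/ha. For post-emergence treatments, plants have 2–3 leaves and the spray carries 0.25% v/v non-ionic surfactant.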
# [11] = system: upland rice (Oryza sp., var. Tebonnet, RICE); assay: Pre-emerge test, crop safety; conditions: pre-emerge, rated 14 days after application, 0 = no damage, 100 = complete death
# Outline: as §2
# [12] = system: barnyardgrass (Echinochloa crus-galli, ECHCG); assay: Post-emerge test, greenhouse herbicide activity screening; conditions: 14 days after application; for Post-emerge Herbicidal Activity ECHCG: phytotoxicity rating 0-100 (0 no damage, 100 complete death); for phytotoxicity rating ECHCG: post-emerge, rating scale 0-100
# Outline: (§3)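 Sandy loam pots; pre-emerge: sown 1 d pre-spray, surface-watered after, then bottom-watered. Post-emerge: sown 8–21 d before, 2–3 leaf stage, + 0.25% v/v NIS, bottom-watered. Acetone, 187 l/ha track spray, 15–1000 g ai/ha. 0–100 injury score, day 14.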
# [13] = system: common ragweed (Ambrosia artemisizfolia L., AMBEL); assay: as above; conditions: post-emerge, 14 days after application, rating scale 0-100
# Outline: as §3
# [14] = system: green foxtail (Setaria viridis, SETVI); assay: as above; conditions: 14 days after application; for Post-emerge Herbicidal Activity SETVI: phytotoxicity rating 0-100 (0 no damage, 100 complete death); for phytotoxicity rating SETVI: post-emerge, rating scale 0-100
# Outline: as §3
# [15] = system: ivyleaf morningglory (Ipomoea hederacea, IPOHE); assay: as above; conditions: 14 days after application; for Post-emerge Herbicidal Activity IPOHE: phytotoxicity rating 0-100 (0 no damage, 100 complete death); for phytotoxicity rating IPOHE: post-emerge, rating scale 0-100
# Outline: as §3
# [16] = system: johnsongrass (Sorghum halepense, SORHA); assay: as above; conditions: 14 days after application; for Post-emerge Herbicidal Activity SORHA: phytotoxicity rating 0-100 (0 no damage, 100 complete death); for phytotoxicity rating SORHA: post-emerge, rating scale 0-100
# Outline: as §3
# [17] = system: lambsquarters (Chenopodium album, CHEAL); assay: as above; conditions: 14 days after application; for Post-emerge Herbicidal Activity CHEAL: phytotoxicity rating 0-100 (0 no damage, 100 complete death); for phytotoxicity rating CHEAL: post-emerge, rating scale 0-100
# Outline: as §3
# [18] = system: large crabgrass (Digitaria sanguinalis, DIGSA); assay: as above; conditions: 14 days after application; for Post-emerge Herbicidal Activity DIGSA: phytotoxicity rating 0-100 (0 no damage, 100 complete death); for phytotoxicity rating DIGSA: post-emerge, rating scale 0-100
# Outline: as §3
# [19] = system: redroot pigweed (Amaranthus retroflexus, AMARE); assay: as above; conditions: 14 days after application; for Post-emerge Herbicidal Activity AMARE: phytotoxicity rating 0-100 (0 no damage, 100 complete death); for phytotoxicity rating AMARE: post-emerge, rating scale 0-100
# Outline: as §3
# [20] = system: sicklepod (Cassia obtusifolia, CASOB); assay: as above; conditions: 14 days after application; for Post-emerge Herbicidal Activity CASOB: phytotoxicity rating 0-100 (0 no damage, 100 complete death); for phytotoxicity rating CASOB: post-emerge, rating scale 0-100
# Outline: as §3
# [21] = system: velvetleaf (Abutilon theophrasti, ABUTH); assay: as above; conditions: 14 days after application; for Post-emerge Herbicidal Activity ABUTH: phytotoxicity rating 0-100 (0 no damage, 100 complete death); for phytotoxicity rating ABUTH: post-emerge, rating scale 0-100
# Outline: as §3
# [22] = system: field corn (Zea mays L., var. Dekalb 535, CORN); assay: Post-emerge test, crop safety; conditions: 14 days after application; for Post-emerge Herbicidal Activity CORN (crop damage): phytotoxicity rating 0-100 (0 no damage, 100 complete death); for phytotoxicity rating CORN: post-emerge, rating scale 0-100
# Outline: (§4)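 Each test used a mechanized track sprayer delivering 187 l/ha of acetone solution at 15–1000 g ai/ha. Post-emerge foliage at 2–3 leaves was treated with added 0.25% v/v non-ionic surfactant and bottom-watered only. Injury was assessed on day 14, where 100 means total kill.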
# [23] = system: upland rice (Oryza sp., var. Tebonnet, RICE); assay: Post-emerge test, crop safety; conditions: 14 days after application; for Post-emerge Herbicidal Activity RICE (crop damage): phytotoxicity rating 0-100 (0 no damage, 100 complete death); for phytotoxicity rating RICE: post-emerge, rating scale 0-100
# Outline: as §4
smiles,measurement,setting,value
COc1c(Cl)cc(F)c(-n2c(=O)cc(C(F)(F)F)n(C)c2=O)c1NC(=O)CC#N [2-14],"Pre-emerge Herbicidal Activity AMARE (phytotoxicity rating, scale 0-100)",[1]; 63 g ai/ha,50
same,"Pre-emerge Herbicidal Activity AMARE (phytotoxicity rating, scale 0-100)",[1]; 250 g ai/ha,100
same,"Pre-emerge Herbicidal Activity ECHCG (phytotoxicity rating, scale 0-100)",[2]; 63 g ai/ha,0
same,"Pre-emerge Herbicidal Activity ECHCG (phytotoxicity rating, scale 0-100)",[2]; 250 g ai/ha,0
same,"Pre-emerge Herbicidal Activity SETVI (phytotoxicity rating, scale 0-100)",[3]; 63 g ai/ha,60
same,"Pre-emerge Herbicidal Activity SETVI (phytotoxicity rating, scale 0-100)",[3]; 250 g ai/ha,100
same,"Pre-emerge Herbicidal Activity IPOHE (phytotoxicity rating, scale 0-100)",[4]; 63 g ai/ha,0
same,"Pre-emerge Herbicidal Activity IPOHE (phytotoxicity rating, scale 0-100)",[4]; 250 g ai/ha,100
same,"Pre-emerge Herbicidal Activity SORHA (phytotoxicity rating, scale 0-100)",[5]; 63 g ai/ha,0
same,"Pre-emerge Herbicidal Activity SORHA (phytotoxicity rating, scale 0-100)",[5]; 250 g ai/ha,30
same,"Pre-emerge Herbicidal Activity CHEAL (phytotoxicity rating, scale 0-100)",[6]; 63 g ai/ha,50
same,"Pre-emerge Herbicidal Activity CHEAL (phytotoxicity rating, scale 0-100)",[6]; 250 g ai/ha,100
same,"Pre-emerge Herbicidal Activity DIGSA (phytotoxicity rating, scale 0-100)",[7]; 63 g ai/ha,0
same,"Pre-emerge Herbicidal Activity DIGSA (phytotoxicity rating, scale 0-100)",[7]; 250 g ai/ha,20
same,"Pre-emerge Herbicidal Activity CASOB (phytotoxicity rating, scale 0-100)",[8]; 63 g ai/ha,0
same,"Pre-emerge Herbicidal Activity CASOB (phytotoxicity rating, scale 0-100)",[8]; 250 g ai/ha,60
same,"Pre-emerge Herbicidal Activity ABUTH (phytotoxicity rating, scale 0-100)",[9]; 63 g ai/ha,90
same,"Pre-emerge Herbicidal Activity ABUTH (phytotoxicity rating, scale 0-100)",[9]; 250 g ai/ha,100
same,"Pre-emerge crop damage CORN (phytotoxicity rating, scale 0-100)",[10]; 63 g ai/ha,0
same,"Pre-emerge crop damage CORN (phytotoxicity rating, scale 0-100)",[10]; 250 g ai/ha,0
same,"Pre-emerge crop damage RICE (phytotoxicity rating, scale 0-100)",[11]; 63 g ai/ha,0
same,"Pre-emerge crop damage RICE (phytotoxicity rating, scale 0-100)",[11]; 250 g ai/ha,30
same,Post-emerge Herbicidal Activity ECHCG,[12]; 63 g ai/ha,0
same,Post-emerge Herbicidal Activity ECHCG,[12]; 250 g ai/ha,0
same,phytotoxicity rating ECHCG,[12]; 63 g ai/ha,30
same,phytotoxicity rating ECHCG,[12]; 250 g ai/ha,40
same,phytotoxicity rating AMBEL,[13]; 63 g ai/ha,60
same,phytotoxicity rating AMBEL,[13]; 250 g ai/ha,90
same,Post-emerge Herbicidal Activity SETVI,[14]; 63 g ai/ha,0
same,Post-emerge Herbicidal Activity SETVI,[14]; 250 g ai/ha,0
same,phytotoxicity rating SETVI,[14]; 63 g ai/ha,20
same,phytotoxicity rating SETVI,[14]; 250 g ai/ha,50
same,Post-emerge Herbicidal Activity IPOHE,[15]; 63 g ai/ha,40
same,Post-emerge Herbicidal Activity IPOHE,[15]; 250 g ai/ha,80
same,phytotoxicity rating IPOHE,[15]; 63 g ai/ha,70
same,phytotoxicity rating IPOHE,[15]; 250 g ai/ha,90
same,Post-emerge Herbicidal Activity SORHA,[16]; 63 g ai/ha,0
same,Post-emerge Herbicidal Activity SORHA,[16]; 250 g ai/ha,0
same,phytotoxicity rating SORHA,[16]; 63 g ai/ha,20
same,phytotoxicity rating SORHA,[16]; 250 g ai/ha,20
same,Post-emerge Herbicidal Activity CHEAL,[17]; 63 g ai/ha,30
same,Post-emerge Herbicidal Activity CHEAL,[17]; 250 g ai/ha,40
same,phytotoxicity rating CHEAL,[17]; 63 g ai/ha,80
same,phytotoxicity rating CHEAL,[17]; 250 g ai/ha,100
same,Post-emerge Herbicidal Activity DIGSA,[18]; 63 g ai/ha,0
same,Post-emerge Herbicidal Activity DIGSA,[18]; 250 g ai/ha,0
same,phytotoxicity rating DIGSA,[18]; 63 g ai/ha,10
same,phytotoxicity rating DIGSA,[18]; 250 g ai/ha,20
same,Post-emerge Herbicidal Activity AMARE,[19]; 63 g ai/ha,40
same,Post-emerge Herbicidal Activity AMARE,[19]; 250 g ai/ha,70
same,phytotoxicity rating AMARE,[19]; 63 g ai/ha,85
same,phytotoxicity rating AMARE,[19]; 250 g ai/ha,100
same,Post-emerge Herbicidal Activity CASOB,[20]; 63 g ai/ha,10
same,Post-emerge Herbicidal Activity CASOB,[20]; 250 g ai/ha,10
same,phytotoxicity rating CASOB,[20]; 63 g ai/ha,40
same,phytotoxicity rating CASOB,[20]; 250 g ai/ha,70
same,Post-emerge Herbicidal Activity ABUTH,[21]; 63 g ai/ha,90
same,Post-emerge Herbicidal Activity ABUTH,[21]; 250 g ai/ha,95
same,phytotoxicity rating ABUTH,[21]; 63 g ai/ha,100
same,phytotoxicity rating ABUTH,[21]; 250 g ai/ha,100
same,Post-emerge Herbicidal Activity CORN (crop damage),[22]; 63 g ai/ha,0
same,Post-emerge Herbicidal Activity CORN (crop damage),[22]; 250 g ai/ha,10
same,phytotoxicity rating CORN,[22]; 63 g ai/ha,50
same,phytotoxicity rating CORN,[22]; 250 g ai/ha,60
same,Post-emerge Herbicidal Activity RICE (crop damage),[23]; 63 g ai/ha,10
same,Post-emerge Herbicidal Activity RICE (crop damage),[23]; 250 g ai/ha,30
same,phytotoxicity rating RICE,[23]; 63 g ai/ha,60
same,phytotoxicity rating RICE,[23]; 250 g ai/ha,90
